These results are taken from patent publication US6392049B1, “Process for preparing 2,4-dihydroxypyridine and 2,4-dihydroxy-3-nitropyridine” (Aventis Pharmaceuticals Inc., priority 1996, dated 2002).

For assay [1], the system named is normotensive anesthetized rat. The assay can be described thus: Mean arterial blood pressure and heart rate in normotensive anesthetized rat. It is filed as in vivo. Conditions: for Anesthetized Rat HR/ED25: intravenous dose lowering heart rate by 25%; for Anesthetized Rat MAP/ED25: intravenous dose lowering mean arterial pressure by 25%. The protocol: Normotensive rats are anesthetized with sodium pentobarbital (50 mg/kg, i.p.) and placed on a heated surgical table. Cannulas are inserted into the femoral artery and veined to allow the measurement of arterial pressure and to facilitate the intravenous administration of test compounds. The animals are allowed to equilibrate for 10 minutes after surgery. Mean arterial pressure is continuously measured and recorded and heart rate is monitored using the arterial pressure pulse to trigger a cardiotachometer. After baseline parameters are established and recorded, increasing doses (1, 3, 10, 30, 100, 300 and 1000 μg/kg) of the compound of Formula I to be tested are administered intravenously. Maximal changes in the cardiovascular parameters are observed after each dose of the adenosine agonist. Only one compound is administered per rat.

A further assay has as its system swine coronary arteries. The assay can be described thus: In vitro vasorelaxation in isolated swine coronary arteries. Type of assay: cell-based. The protocol:
Swine coronary arteries are obtained from a local slaughter house, dissected carefully and cleaned of fat, blood and adhering tissue. Rings approximately 2-3 mm wide are cut and transferred to water-jacketed tissue baths (10 mL) filled with warm (37° C.), oxygenated (O2/CO2:95%/5%) Krebs-Henseleit buffer and mounted on L-shaped hooks between stainless steel rods and a force transducer. […] PGF2a, before being exposed to 3 μM PGF2a.

The next assay has as its target T1, A1 receptor (Rattus norvegicus, UniProt P25099).
T1 construct: using a membrane preparation of whole rat brain; from tissue; host or cells: whole rat brain membranes
T1 sequence (P25099 1-326): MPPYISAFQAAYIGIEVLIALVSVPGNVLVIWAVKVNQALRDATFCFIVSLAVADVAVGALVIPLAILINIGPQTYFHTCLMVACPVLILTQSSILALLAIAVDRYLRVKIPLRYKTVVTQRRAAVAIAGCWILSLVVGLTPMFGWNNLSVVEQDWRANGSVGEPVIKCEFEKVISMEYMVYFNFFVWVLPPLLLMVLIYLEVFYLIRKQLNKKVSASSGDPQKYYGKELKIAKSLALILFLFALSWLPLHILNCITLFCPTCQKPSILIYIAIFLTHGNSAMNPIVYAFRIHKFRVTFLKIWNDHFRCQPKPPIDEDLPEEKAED
The assay can be described thus: A1 adenosine receptor binding, displacement of 3H-CHA, whole rat brain membranes. Conditions: 3H-CHA displacement, 25° C., 60 minutes. The protocol: Non-specific binding is assessed in the presence of 1 mM theophylline.
(§1) The assays are run in glass test tubes in duplicate at 25° C. Once the membranes are added, the tubes are vortexed and incubated at 25° C. for 60 minutes (A1 assay) or 90 minutes (A2 assay) on a rotary shaker. The assay tubes are vortexed halfway through the incubation and again near the end. The assays are terminated by rapid filtration through 2.4 cm GF/B filters using a Brandel Cell Harvestor. The test tubes are washed three times with cold 50 mM tris-HCl (pH 7.7 or 7.4), with filtration being completed within 15 seconds. The damp filter circles are placed in glass scintillation vials filled with 10 ml of Aquasol II (New England Nuclear). The vials are allowed to shake overnight on a rotary shaker and are placed into a liquid scintillation analyzer for two minute counts. IC50 values for receptor binding, i.e. the concentration at which a compound of Formula I displaced the radiolabeled standard, are obtained using a curve-fitting computer program (RS/1, Bolt, Beranek and Newman, Boston, Mass.).

The next assay deals with T2, A2 receptor (Rattus norvegicus, UniProt P30543).
T2 construct: using membranes from rat brain striatum; from tissue; host or cells: rat brain striatum membranes
T2 sequence (P30543 whole entry): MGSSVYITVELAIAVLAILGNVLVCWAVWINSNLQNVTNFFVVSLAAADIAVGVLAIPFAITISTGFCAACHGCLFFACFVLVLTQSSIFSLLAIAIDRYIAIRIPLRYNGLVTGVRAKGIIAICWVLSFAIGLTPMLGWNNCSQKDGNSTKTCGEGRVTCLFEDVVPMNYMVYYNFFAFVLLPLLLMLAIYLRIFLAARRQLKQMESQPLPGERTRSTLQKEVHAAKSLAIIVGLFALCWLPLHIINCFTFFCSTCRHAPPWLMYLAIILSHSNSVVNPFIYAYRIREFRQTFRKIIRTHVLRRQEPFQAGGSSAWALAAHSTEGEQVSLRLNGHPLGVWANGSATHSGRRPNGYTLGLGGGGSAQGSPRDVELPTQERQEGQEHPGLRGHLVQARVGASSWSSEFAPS
The assay can be described thus: A2 adenosine receptor binding, displacement of 3H-CGS 21680, rat brain striatum membranes. The settings on record: 3H-CGS 21680 displacement, rat brain striatum membranes, 25° C., 90 minutes; read-out: Adenosine Receptor Binding Activity/IC50 (nM) A2. The method, then: Non-specific binding is assessed in the presence of 20 μm 2-chloroadenosine.
as §1

In a further assay the test system is rat adipocytes. Nature of the assay: Antilipolytic activity in rat adipocytes (in vitro lipolysis assay, glycerol production). Type of assay: cell-based. Conditions: for EC50: read-out: EC50 (50% inhibition of glycerol production). The method, then:
Adipose tissue is removed from anesthetized rats and rinsed twice in incubation medium (2.09 g sodium bicarbonate and 0.04 g EDTA, disodium salt, in 1 L Krebs buffer). Each rat (300-350g) yields approximately 4 ml of adipose tissue. The adipose tissue (35 mL) is cut into small pieces with scissors and washed with incubation medium (50 mL). The mixture is poured into the barrel of a 50 mL syringe to which is attached a short piece of clamped tubing instead of a needle. The aqueous phase is allowed to drain. A second wash with incubation medium is passed through the syringe. The tissue is added to 50 mL of collagenase solution (collagenase (90 mg), bovine serum albumin (BSA) (500 mg), and 0.1 M calcium chloride solution (1 mL), in incubation medium (50 mL)) in a 1 L bottle. The mixture is shaken in an environmental at 37 ° C. for about 60 minutes under an atmosphere of 95% oxygen/5% carbon dioxide to effect digestion of the tissue. The dispersed cells are poured through 2 layers of cheese cloth into a 100 mL plastic beaker. The undigested clumps in the cloth are rinsed once with incubation medium (20 mL). The cells in the beaker are centrifuged in 2 plastic tubes for 30 seconds at room temperature at 300 rpm. The aqueous phase is aspirated from beneath the loosely packed layer of floating fat cells and discarded. The adipocytes are gently poured into a 250 mL plastic beaker containing 100 mL of rinse solution (1 g BSA per 100 mL incubation medium). After gentle stirring the centrifugation step is repeated. Another wash with rinse solution follows. The cells are pooled and their volume is estimated with a graduated cylinder. The adipocytes are diluted in twice their volume of assay buffer (incubation medium (120 mL), BSA (1.2 g), pyruvic acid (13 mg)).
The assay is performed in 20 mL plastic scintillation vials and the total assay volume is 4.2 ml. Assay buffer (2.5 mL), diluted adipocytes (1.5 mL), and a solution of the compound to be tested (12.3 μL) adenosine agonist (12.3 μL; varying concentration) is incubated in the environmental shaker for 15 minutes, then the reaction is started with norepinephrine solution (41.2 μL) (10 nM, in a carrier solution containing water (100 mL), BSA (4 mg), and 0.1 M EDTA (20 μL))and adenosine deaminase (1 μg/ml, 41.2 μL). After sixty minutes in the shaker the reaction is terminated by putting the vials on ice. […] The hard lipid layer is removed by aspiration and the aqueous layer is assayed for glycerol (400 μL of sample). The positive control is done in the absence of any adenosine agonist, substituting water in place of the solution to be tested.

[2] abbreviates: 50% reduction in tension of rings contracted with 3 μM PGF2a, read-out: Vasorelaxation in Swine Coronary Artery/IC50.
Setting [3] is: Sus scrofa, read-out: Vasorelaxation in Swine Coronary Artery/IC50 (μM).

Where two headings read alike, the source gives them in different places. Some results are limits rather than exact numbers.

Turning to `OC[C@H]1O[C@@H](n2cnc3c(NCCc4nccs4)ncnc32)[C@H](O)[C@@H]1O` [Example 13, N^6-[2-(2′-thiazolyl)ethyl]-adenosine], the “Anesthetized Rat HR/ED25” value in assay [1] is >10 µg/kg. Besides, the “Anesthetized Rat MAP/ED25” value in assay [1] was 3 µg/kg. Further, the IC50 stood at 0.24 µM with swine coronary arteries (setting [2]), 41 nM at A1 receptor and 191 nM at A2 receptor.
A word on the EC50: it is the concentration that produces a half-maximal response. For `CO[C@@H]1[C@H](O)[C@@H](CO)O[C@H]1n1cnc2c(N[C@H](C)Cc3ccc(Cl)s3)ncnc21` [Example 48, N^6-[2-(5-chloro-2-thienyl)-(1R)-1-methylethyl]-2′-O-methyladenosine], in the assay with rat adipocytes (Adipocyte, rat adipocytes, norepinephrine-stimulated), the EC50 was determined as 0.00186 µM. Further, the values for the IC50 on A1 receptor and on A2 receptor were 8.35 nM and 1440 nM, respectively.
Regarding `OC[C@H]1O[C@@H](n2cnc3c(N[C@@H]4CCCC[C@H]4c4cccs4)ncnc32)[C@H](O)[C@@H]1O` (relative stereo) [Example 7, N^6-[trans-2-(thiophen-2-yl)-cyclohex-1-yl]adenosine], the “Anesthetized Rat HR/ED25” value in assay [1] worked out at 18 µg/kg. The “Anesthetized Rat MAP/ED25” value in assay [1] is 6 µg/kg. Besides, the IC50 in the assay with swine coronary arteries (setting [3]) came to 4 µM; on A1 receptor it was 3.5 nM; at A2 receptor, 28 nM.
Turning to `Cc1csc(CNc2ncnc3c2ncn3[C@@H]2O[C@H](CO)[C@@H](O)[C@H]2O)n1` [Example 18, N^6-[2-(4′-methyl-2′-thiazolyl)-methyl]adenosine], in assay [1], the “Anesthetized Rat HR/ED25” value is >10 µg/kg. Also, the “Anesthetized Rat MAP/ED25” value in assay [1] stood at 2 µg/kg. Also, the figures for the IC50 in the assay on swine coronary arteries (setting [2]), at A1 receptor and at A2 receptor were 0.46 µM, 166 nM and 52 nM, respectively.
Take `CCNC(=O)[C@H]1C[C@@H](n2cnc3c(NCCc4scnc4C)ncnc32)[C@H](O)[C@@H]1O` (relative stereo) [Example 24, (±)-N^6-[2-(4″-methyl-5″-thiazolyl)ethyl]carbocydic adenosine-5′-N-ethyl carboxamide]: in assay [1], the “Anesthetized Rat HR/ED25” value was >10 µg/kg. For the same compound, the “Anesthetized Rat MAP/ED25” value in assay [1] turned out to be 6 µg/kg. Further, the IC50 on A1 receptor and on A2 receptor was > 1000 nM in each case.
Turning to `OC[C@H]1O[C@@H](n2cnc3c(NCCNc4nc5ccccc5s4)ncnc32)[C@H](O)[C@@H]1O` [Example 9, N^6-[2-(2′-aminobenzothia-zolyl)ethyl]adenosine], the “Anesthetized Rat HR/ED25” value in assay [1] came out at 4 µg/kg. In assay [1], the “Anesthetized Rat MAP/ED25” value is 5 µg/kg. Moreover, the results for the IC50 with swine coronary arteries (setting [2]), on A1 receptor and at A2 receptor were 11.9 µM, 4 nM and 1000 nM, respectively.
On the same counts, the results for `CCNC(=O)[C@H]1O[C@@H](n2cnc3c(NCCNc4nc5ccccc5s4)ncnc32)[C@H](O)[C@@H]1O` [Example 23] are 7 µg/kg, 6 µg/kg, 4.4 µM, 0.32 nM and 891 nM.
In the case of `C[C@H](Cc1ccccc1)Nc1ncnc2c1ncn2[C@@H]1O[C@H](CO)[C@@H](O)[C@H]1O` [R-PIA, R-phenylisopropyladenosine, reference compound], in the assay with rat adipocytes (rat adipocytes, norepinephrine-stimulated), the EC50 worked out at 0.001 µM. Further, the IC50 with swine coronary arteries (literature compounds, Table V, methods as above, unit inferred, read-out: Vasorelaxation (IC50)) came to 0.76 µM.
In the case of `CCNC(=O)[C@H]1O[C@@H](n2cnc3c(N)ncnc32)[C@H](O)[C@@H]1O` [NECA, N-ethylcarboxamido-adenosine], in the assay on rat adipocytes (Rattus norvegicus, Adipocyte), the 50% effective concentration (EC50) came out at 0.0025 µM.
As to `OC[C@H]1O[C@@H](n2cnc3c(N[C@@H]4CC=CC[C@H]4c4ccsc4)ncnc32)[C@H](O)[C@@H]1O` (relative stereo) [Example 8, N^6-[trans-2-(thiophen-3-yl)-cyclohex-4-en-1-yl]adenosine], in assay [1], the “Anesthetized Rat HR/ED25” value is 23 µg/kg and the “Anesthetized Rat MAP/ED25” value came to 10 µg/kg. At A1 receptor, this compound yielded an IC50 of 5 nM. Besides, the IC50 on A2 receptor stood at 138 nM.
Turning to `Cc1ncsc1CCNc1ncnc2c1ncn2[C@@H]1O[C@H](CO)[C@@H](O)[C@H]1O` [Example 12, N^6-[2-(4′-methylthiazol-5′-yl)-ethyl]adenosine], the “Anesthetized Rat HR/ED25” value in assay [1] amounted to 17 µg/kg. Moreover, in assay [1], the “Anesthetized Rat MAP/ED25” value was found to be 4 µg/kg. Further, the IC50 with swine coronary arteries (setting [2]) amounted to 0.5 µM; at A1 receptor it was 23 nM; at A2 receptor, 224 nM.
Regarding `CCNC(=O)[C@H]1C[C@@H](n2cnc3c(NCCc4cccs4)ccnc32)[C@H](O)[C@@H]1O` (racemic) [Example 30, (±)-N6-[1-(thiopheny-2-yl)ethan-2-yl]-N′-1-deazaaristeromycin-5′-N-ethyl carboxamide], the “Anesthetized Rat HR/ED25” value in assay [1] was >10 µg/kg. Besides, the “Anesthetized Rat MAP/ED25” value in assay [1] turned out to be 6 µg/kg. Moreover, the IC50 in the assay on swine coronary arteries (setting [3]) is 12.1 µM; on A1 receptor, 562 nM; at A2 receptor, > 1000 nM.
With `C[C@H](Cc1cc2ccccc2s1)Nc1ncnc2c1ncn2[C@@H]1O[C@H](CO)[C@@H](O)[C@H]1O` [Example 15, N^6-[(R)-1-methyl-2-(2′benzo-[b]-thiophenyl)ethyl]adenosine], in assay [1], the “Anesthetized Rat HR/ED25” value came to 1.4 µg/kg and the “Anesthetized Rat MAP/ED25” value turned out to be 1.5 µg/kg. Further, in the assay on swine coronary arteries (setting [3]), the IC50 worked out at 2.45 µM. The same compound displayed an IC50 on A1 receptor of 4.07 nM.
The term inhibition denotes the drop in the measured response relative to a control, in per cent. In the case of `CCNC(=O)[C@H]1O[C@@H](n2cnc3c(N)nc(NCCc4ccc(CCC(=O)O)cc4)nc32)[C@H](O)[C@@H]1O` [CGS21680, 2-[[2-[4-[2-carboxethyl)phenyl]ethyl]amino]-N-ethylcarboxamidoadenosine], the inhibition at 1 µM in the assay on rat adipocytes (Rattus norvegicus, Adipocyte, read-out: % Inhibition of glycerol production, 1 μM) was 0%. Also, in the assay with rat adipocytes (statement in words), the antilipolytic activity entry was “do not exhibit antilipolytic activity”. Besides, the IC50 with swine coronary arteries (Sus scrofa, read-out: Vasorelaxation (IC50)) is 0.08 µM.
